Patent US8053467B2, “Flavor improving agent, and food and drink containing the same” (Takasago International Corporation, priority 2006, dated 2011)

How the values were obtained:
[1] = Bitterness threshold by sensory evaluation test (panel of 9 experts); format: in vivo; details: for bitterness at the maximum concentration: at 0.1% by weight, the maximum concentration (1000 times the acetal threshold)
Protocol: 100 mg of 5-hydroxymethyl-2-furaldehyde bis(5-formylfurfuryl)acetal obtained in Example 1 was dissolved in 1 mL of ethanol, and 100 mL of water was added to produce 0.1% by weight of a 1 wt. % ethanol solution. This solution was diluted 10-fold with water repeatedly to prepare samples for evaluation. In consideration of the taste of ethanol itself, a 1 wt. % ethanol solution was prepared and diluted 10-fold with water repeatedly to prepare blanks respectively corresponding to the samples for evaluation. The evaluation was performed by a panel of 9 experts. The sensory evaluation test was performed from a sample/blank having a lower concentration. In the order of blanks to samples, the experts held 200 mg of each sample/blank in the mouth and evaluated the difference in taste.

[2] = Sensory evaluation of the flavor improving agents for the sugar-free sweetener; format: in vivo
Protocol: A sugar-free sweetener having the formulation shown in Table 2 was obtained, and 12 g of the sugar-free sweetener was dissolved in 1 kg of ion exchanged water to obtain a 1.2 wt. % aqueous solution. 60 mg of the flavor improving agent in Example 2 was added to 300 g of the aqueous solution to obtain a sugar-free sweetener solution sample containing 0.02% by weight of the flavor improving agent. The content of 5-hydroxymethyl-2-furaldehyde bis(5-formylfurfuryl)acetal in the sugar-free sweetener was 0.00014% by weight.
This sample was evaluated with regard to the items shown in Table 3 by a sensory evaluation method of comparing a sample with a control product. The evaluation was performed by a panel of 5 trained experts. The sample was evaluated with the points in the range of −3 to +3, with setting the control product at 0 point. The control product was not provided with a flavor improving agent (provided with ethanol).
The numerals in the table are the averages of the 5 experts.

[3] = literature report; cited from earlier work
[4] = Sensory evaluation of the flavor improving agents for the coffee drink; format: in vivo; details: summary of Table 10
Protocol: 60 mg of the flavor improving agent in Example 2 was added to 300 g of commercially available canned coffee to obtain a coffee drink containing 0.02% by weight of the flavor improving agent. The content of 5-hydroxymethyl-2-furaldehyde bis(5-formylfurfuryl)acetal in this coffee drink was 0.00014% by weight.
This coffee drink was evaluated with regard to the items shown in Table 10 by a sensory evaluation method of comparing a sample with a control product. The evaluation was performed by a panel of 5 trained experts. Sensory evaluation of the coffee drink was carried out with the points in the range of −3 to +3, with setting the control product at 0 point, in the same manner as in Example 9. The control product was not provided with a flavor improving agent (provided with ethanol).

[5] = same type of test as Example 9, agents prepared as in Example 2 with formulas (2) and (3), also with 100 times the amount
[6] = sugar-free sweetener solution, summary of Table 3

Compound: O=Cc1ccc(CO)o1 [formula (2), 5-hydroxymethyl-2-furaldehyde]
- bitterness at the maximum concentration [1]: did not provide bitterness
- flavor improving effect in words [2, 5]: None of the agents exhibited any flavor improving effect and provided various unpleasant tastes including astringency
- reported taste [3]: unpleasant taste

Compound: C[C@@H]1O[C@@H](O[C@H]2[C@H](Oc3cc(O)c4c(c3)O[C@H](c3ccc(O)cc3)CC4=O)O[C@H](CO)[C@@H](O)[C@@H]2O)[C@H](O)[C@H](O)[C@H]1O [naringin]
- flavor effect in words [4]: medicine-like unnatural bitterness and are poor in attractiveness

Compound: diheterolevulosan II
- flavor effect in words [4]: medicine-like unnatural bitterness and are poor in attractiveness

Compound: O=Cc1ccc(COC(OCc2ccc(C=O)o2)c2ccc(CO)o2)o1 [acetal compound of the present invention, 5-hydroxymethyl-2-furaldehyde bis(5-formylfurfuryl)acetal]
- bitterness threshold ([1]; 1 ppm expressed in %): 0.0001%
- bitterness threshold ([1]; 1 ppm expressed in % by weight): 0.0001 % by weight
- bitterness threshold ([1]; 10-fold dilutions in water vs ethanol blanks, panel of 9 experts): 1 ppm
- bitterness threshold converted to the molar concentration ([1]; converted from 1 ppm): about 10^−3 mM

Compound: αG hesperidin
- flavor improving effect in words [2, 6]: poor effect of reducing astringency or improving the sense of volume

Compound: O=Cc1ccc(COCc2ccc(C=O)o2)o1 [formula (3)]
- bitterness at the maximum concentration [1]: did not provide bitterness
- flavor improving effect in words [2, 5]: None of the agents exhibited any flavor improving effect and provided various unpleasant tastes including astringency
- reported taste [3]: unpleasant taste

Compound: O.O.O.O.O.O.O.O.O.O.O.O.O=S(=O)([O-])[O-].O=S(=O)([O-])[O-].[Al+3].[K+] [potassium alum]
- flavor improving effect in words [2, 6]: poor effect of reducing astringency or improving the sense of volume
